Measured values from patent US20080292571A1, “Deodorant composition with monocyclic, unsaturated sequiterpene alcohols and glyceryl monoalkyl ethers as synergistic active deodorant agents” (priority 2007, published 2008).

Experiments:
[1] = test system: Staphylococcus; test: Anti-microbial test: microorganisms inoculated into gel formula, survivors counted; assay type: cell-based
Description: The antimicrobially synergistically effect of alpha Bisabolol (Natural) for glyceryl monoalkyl ether was studied and the results are summarized in Tables 15 and 16, below. […] Subsequently the steareth-100, sodium stearate, and stearyl alcohol were added and the mixture cooled. […] The final compositions were then poured into containers and cooled to room temperature. […] Therefore following formula is gel type. Inoculate test microorganisms to provide a suspension containing from […] microorganisms/ml and after 1 hr, 5 hr and 24 hr, check the surviving microorganisms by incubating in the soybean-casein digest agar for 24 hours at 32.5° C. the results are summarized below.

[2] = 0.3% by weight ethylhexylglycerin in ethanol base deodorant vs 0.1% by weight triclosan; cited from earlier work
[3] = cited from earlier work
[4] = test system: odor-causing gram positive bacteria; settings: as reported in U.S. Pat. No. 5,736,574; cited from earlier work

| Compound | anti-microbial activity (in words) ([1]; 0.2% by weight, with no ethylhexylglycerin) | effect on the anti-microbial activity of ethylhexylglycerin ([1]; alpha Bisabolol (Natural) combined with ethylhexylglycerin) | deodorant effectiveness compared with triclosan [2] | stability ([3]; e.g. against hydrolysis and elevated temperatures) | solubility in fats and organic solvents ([3]; fats and organic solvents like alcohols, glycols and glycol ethers) | solubility in water ([3]; water) [%] | anti-microbial activity against odor-causing gram positive bacteria [4] |
| --- | --- | --- | --- | --- | --- | --- | --- |
| CC(C)=CCC[C@](C)(O)[C@@H]1CC=C(C)CC1 [alpha Bisabolol (Natural), alpha-Bisabolol] | no anti-microbial activity | synergistic effect | – | – | – | – | – |
| CCCCC(CC)COCC(O)CO (stereo not shown) [ethylhexylglycerin, Ethylhexylglycerin] | – | – | just as effective as 0.1% by weight triclosan | rather stable | completely soluble | 0.2 | very low |
